Reference: patent publication US5495046A, “Alkoxyphenylalkylamine derivatives” (Taisho Pharmaceutical Co., Ltd., priority 1991, dated 1996)
Structures can show the parent of a compound that is named as a salt. Where two headings read alike, the source gives them in different places.

Columns and labels:
D2 receptor [1] = molecular target: D2 receptor (Rattus norvegicus, UniProt P61169); test: Receptor binding experiment: (-)[3H] sulpiride binding; parameters: species or system rat (male Wistar)
Protocol: (§1) Receptor Binding Experiment
(§2) As test animals, male Wistar rats were used.
(§3) As a [^3 H]-labeled ligand, (+)[^3 H]3-PPP [3-(3-hydroxyphenyl)-N-n-propylpiperidine] was used for sigma receptor, while (-)[^3 H] sulpiride was used for D2 receptor.
(§4) Binding reactions with the use of these [^3 H]-labeled ligands were performed respectively in accordance with the following methods (1) and (2) described in Molecular Pharmacology, 32, p. 772 (1987) and Journal of Pharmacy and Pharmacology, 32, p. 820 (1987).
(2) (-) [^3 H] sulpiride binding: A membrane preparation obtained from the corpus striatum of rat, (-) [^3 H] sulpiride and a test drug were reacted in a 50 mM Tris hydrochloride buffer (pH 7.7) at 37° C. for 10 minutes.
(§5) After the completion of each reaction, the reaction mixture was filtered under sucking onto a glass filter (GF/B) and the radioactivity of the filter paper was measured with a liquid scintillation spectrometer.
The data obtained by reacting in the presence of 10 μM (+) 3-PPP and 10 μM (-) thiapride were regarded respectively as the nonspecific binding of (+) [^3 H] 3-PPP and (-) [^3 H] sulpiride. Then the difference between the total binding and the nonspecific binding was referred to as the specific binding. The [^3 H]-labeled ligand at a definite concentration and the test drug at various concentrations were reacted under the conditions as specified in the above (1) or (2) to thereby give an inhibition curve.

[2] = test system: (+) SKF 10047-induced abnormal behaviors; test: Antagonism against (+) SKF 10047-induced abnormal behaviors; assay type: in vivo, ICR male mice; settings: Mus musculus
Protocol: Examination on Antagonism Against (+) SKF 10047-induced Abnormal Behaviors
Preparations were formulated by dissolving 10 mg of each test drug in 1 ml of dimethylsulfoxide, diluting with physiological saline to a concentration of […], and further diluting the obtained solution to 0.01 and 0.001 mg/kg (administration dose: 0.1 ml per 10 g body weight of mouse).
The invention compound A, the comparative drug AA and Rimcazole were each orally administered in doses of 0.03, 0.1, 0.3, 1.0, 3.0 and 10.0 mg/kg. Preparations were formulated by suspending in a 5% solution of acacia.
(+) SKF10047 [(+)-N-allylnormetazocine hydrochloride; manufactured by Sigma] was intraperitoneally administered in a dose of 30 mg/kg. The preparation was formulated by dissolving in physiological saline.
As test animals, ICR male mice (Nippon Charles River) aged 4 to 5 weeks were used. Each group had 10 animals.
Each animal was introduced into a transparent acrylic resin cage (24 cm in length×17.5 cm in width×12 cm in height) and allowed to fully adapt to the environment. 35 minutes after the administration of a preparation of a test drug, (+) SKF10047 was administered. […]] were evaluated for 40 minutes at intervals of 5 minutes and the ED25 (mg/kg) was determined.

sigma receptor [3] = molecular target: sigma receptor (Rattus norvegicus, UniProt Q9R0C9); test: biochemical; assay type: binding, rat (male Wistar)
Protocol: as §1, §2, §3, §4
(1) (+) [^3 H] 3-PPP binding: A membrane preparation obtained from the whole brain of rat, (+) [^3 H] 3-PPP and a test drug were reacted in a 50 mM Tris hydrochloride buffer (pH 8.0) at 21° C. for 90 minutes.
as §5
The data obtained by reacting in the presence of 10 μM (+) 3-PPP and 10 μM (-) thiapride were regarded respectively as the nonspecific binding of (+) [^3 H] 3-PPP and (-) [^3 H] sulpiride. Then the difference between the total binding and the nonspecific binding was referred to as the specific binding.

sigma receptor [4] = settings: cited from earlier work
D2 receptor [5] = settings: value obtained from spiperone binding; European Journal of Pharmacology, 155, p. 345 (1988); cited from earlier work
[6] = read-out: 50% inhibitory concentration (IC50), Sigma, (+)[3H]3-PPP, rat whole brain membrane, pH 8.0, 21° C., 90 minutes
[7] = (+)[3H]3-PPP, rat whole brain membrane, pH 8.0, 21° C., 90 minutes
[8] = (-)[3H] sulpiride, rat corpus striatum membrane, pH 7.7, 37° C., 10 minutes
[9] = read-out: 50% inhibitory concentration (IC50), D2, (-)[3H] sulpiride, rat corpus striatum membrane, pH 7.7, 37° C., 10 minutes
[10] = oral, 35 minutes before (+) SKF10047 30 mg/kg i.p., stereotypy scores for 40 minutes at intervals of 5 minutes, read-out: ED25

Sequence of sigma receptor (Rattus norvegicus, UniProt Q9R0C9) (Q9R0C9 whole entry): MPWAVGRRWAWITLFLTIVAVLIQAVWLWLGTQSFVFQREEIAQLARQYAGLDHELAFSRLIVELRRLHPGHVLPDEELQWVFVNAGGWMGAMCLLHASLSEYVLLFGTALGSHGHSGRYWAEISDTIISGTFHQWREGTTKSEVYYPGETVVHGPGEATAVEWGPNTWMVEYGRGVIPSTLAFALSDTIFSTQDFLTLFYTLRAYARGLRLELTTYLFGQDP
Sequence of D2 receptor (Rattus norvegicus, UniProt P61169) (P61169 whole entry): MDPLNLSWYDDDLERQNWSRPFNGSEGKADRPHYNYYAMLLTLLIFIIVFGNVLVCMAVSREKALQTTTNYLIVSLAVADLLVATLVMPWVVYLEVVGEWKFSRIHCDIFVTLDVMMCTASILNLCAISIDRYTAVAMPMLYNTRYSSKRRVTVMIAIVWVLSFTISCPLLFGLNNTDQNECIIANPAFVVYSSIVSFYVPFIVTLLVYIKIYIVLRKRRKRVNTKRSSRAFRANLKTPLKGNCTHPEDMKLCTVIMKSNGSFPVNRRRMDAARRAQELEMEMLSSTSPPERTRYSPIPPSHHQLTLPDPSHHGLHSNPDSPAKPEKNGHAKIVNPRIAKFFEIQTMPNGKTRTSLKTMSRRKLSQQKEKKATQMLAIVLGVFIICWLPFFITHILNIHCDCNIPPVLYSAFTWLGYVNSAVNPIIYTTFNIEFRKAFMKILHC

**Q.** With `CCCN(CCC)CCc1ccc(OC)c(OCCc2ccccc2)c1.O=C(O)C(=O)O` [I, N,N-Di-n-propyl-2-[4-methoxy-3-(2-phenylethoxy)phenyl]ethylamine oxalate] as the compound, how does the IC50 (D2 receptor [1]) read?
**A.** > 1000 nM

**Q.** What about the ED25 ([2]; po) of the same compound?
**A.** 0.0008 mg/kg

**Q.** With `COc1cccc(CCN2CCCC2)c1OCCc1ccccc1` [W, N-2-[3-Methoxy-2-(2-phenylethoxy)phenyl]ethylpyrrolidine oxalate] as the compound, how does the IC50 (D2 receptor [1]) read?
**A.** 5350 nM

**Q.** Which IC50 (sigma receptor [3]; [6]) does the source give for `CCCN(CCC)CCc1cccc(OC)c1OCCc1ccccc1.O=C(O)C(=O)O` [T, N,N-Di-n-propyl-2-[3-methoxy-2-(2-phenylethoxy)phenyl]ethylamine oxalate] here?
**A.** 2.71 nM

**Q.** And the IC50 (D2 receptor [1])?
**A.** > 10000 nM

**Q.** And the ED25 ([2]; po)?
**A.** 0.0017 mg/kg

**Q.** What does the source list for `CCCN(CCC)CCCc1cc(Cl)ccc1OCCc1ccccc1` [B, N,N-Di-n-propyl-3-[5-chloro-2-(2-phenylethoxy)phenyl]propylamine oxalate]?
**A.** IC50 (sigma receptor [3]; [7]): 28.9 nM; IC50 (D2 receptor [1]; [8]): > 1000 nM

**Q.** For `CCCN(CCC)CCc1ccc(OC)c(OCCc2cccc(Cl)c2)c1` [O, N,N-Di-n-propyl-2-[4-methoxy-3-[2-(3-chlorophenyl)ethoxy]phenyl]ethylamineoxalate], which IC50 (sigma receptor [3]; [6]) is on record?
**A.** 1.49 nM

**Q.** And the IC50 (D2 receptor [1]; [8])?
**A.** 6600 nM

**Q.** With `CCCN(CCC)CCc1cccc(OC)c1OCCCc1ccccc1` [V, N,N-Di-n-propyl-2-[3-methoxy-2-(3-phenylpropoxy)phenyl]ethylamine oxalate] as the compound, how does the IC50 (sigma receptor [3]) read?
**A.** 1.65 nM

**Q.** For `CCCN(CCC)CCc1ccc(Cl)cc1OCCc1ccccc1` [D, N,N-Di-n-propyl-2-[4-chloro-2-(2-phenylethoxy)phenyl]ethylamine hydrochloride], which IC50 (sigma receptor [3]; [6]) is on record?
**A.** 17.9 nM

**Q.** What about the IC50 (D2 receptor [1]) of the same compound?
**A.** 1450 nM

**Q.** Which IC50 (sigma receptor [3]; [7]) does the source give for `CCCN(CCC)CCCc1cccc(OC)c1OCCc1ccccc1` [U, N,N-Di-n-propyl-3-[3-methoxy-2-(2-phenylethoxy)phenyl]propylamine oxalate] here?
**A.** 12.5 nM

**Q.** For `CCCN(CCC)CCc1ccc(OC)c(OCCc2ccc(OC)cc2)c1` [P, N,N-Di-n-propyl-2-[4-methoxy-3-[2-(4-methoxyphenyl)ethoxy]phenyl]ethylamine oxalate], which IC50 (sigma receptor [3]) is on record?
**A.** 1.03 nM

**Q.** And the IC50 (D2 receptor [1])?
**A.** 4990 nM

**Q.** Which IC50 (sigma receptor [3]; [7]) does the source give for `CCCN1CCCC(c2cccc(O)c2)C1` (single isomer, unassigned) [Compound 3-PPP, 3-(3-hydroxyphenyl)-N-n-propylpiperidine, reference compound] here?
**A.** 24.3 nM

**Q.** Which results are given for `CCCN(CCC)CCc1ccc(OCCc2ccccc2)c(OC)c1` [R, N,N-Di-n-propyl-2-[3-methoxy-4-(2-phenylethoxy)phenyl]ethylamine oxalate]?
**A.** IC50 (sigma receptor [3]): 11.5 nM; IC50 (D2 receptor [1]): > 10000 nM

**Q.** With `CCCN(CCC)CCc1cc(OC)ccc1OCCc1ccccc1` [X, N,N-Di-n-propyl-2-[5-methoxy-2-(2-phenylethoxy)phenyl]ethylamine hydrochloride] as the compound, how does the IC50 (sigma receptor [3]; [6]) read?
**A.** 7.06 nM

**Q.** And the IC50 (D2 receptor [1]; [9])?
**A.** 791 nM

**Q.** With `CCCN(CCC)CCCCc1cc(Cl)ccc1OCCc1ccccc1` [C, N,N-Di-n-propyl-4-[5-chloro-2-(2-phenylethoxy)phenyl]butylamine oxalate] as the compound, how does the IC50 (sigma receptor [3]; [7]) read?
**A.** 26.4 nM

**Q.** Which IC50 (sigma receptor [3]) does the source give for `CCCN(CCC)CCc1ccc(OC)c(OCCc2ccc(F)cc2)c1` [N, N,N-Di-n-propyl-2-[4-methoxy-3-[2-(4-fluorophenyl)ethoxy]phenyl]ethylaminehydrochloride] here?
**A.** 1.03 nM

**Q.** And the IC50 (D2 receptor [1]; [8])?
**A.** > 10000 nM

**Q.** Which results are given for `CCCN(CCC)CCCc1ccc(OC)c(OCCc2ccccc2)c1.O=C(O)C(=O)O` [J, N,N-Di-n-propyl-3-[4-methoxy-3-(2-phenylethoxy)phenyl]propylamine oxalate]?
**A.** IC50 (sigma receptor [3]; [7]): 0.984 nM; IC50 (D2 receptor [1]; [9]): 950 nM; ED25 [2, 10]: 0.00263 mg/kg

**Q.** Which IC50 (sigma receptor [3]; [6]) does the source give for `CCCN(CCC)CCc1ccc(OCCc2ccccc2)cc1OC` [Z, N,N-Di-n-propyl-2-[2-methoxy-4-(2-phenylethoxy)phenyl]ethylamine oxalate] here?
**A.** 6.83 nM

**Q.** What about the IC50 (D2 receptor [1]) of the same compound?
**A.** 9180 nM

**Q.** For `CCCN(CCC)CCc1cc(F)ccc1OCCc1ccccc1` [G, N,N-Di-n-propyl-2-[5-fluoro-2-(2-phenylethoxy)phenyl]ethylamine hydrochloride], which IC50 (sigma receptor [3]) is on record?
**A.** 13.3 nM

**Q.** And the IC50 (D2 receptor [1])?
**A.** 1910 nM

**Q.** With `CCCN(CCC)CCc1ccc(O)c(OCCc2ccccc2)c1` [M, N,N-Di-n-propyl-2-[4-hydroxy-3-(2-phenylethoxy)phenyl]ethylamine hydrochloride] as the compound, how does the IC50 (sigma receptor [3]; [6]) read?
**A.** 3.09 nM

**Q.** What about the IC50 (D2 receptor [1]) of the same compound?
**A.** 2500 nM

**Q.** For `CCCN(CCC)CCc1ccc(OC)c(OCCc2cccs2)c1` [Q, N,N-Di-n-propyl-2-[4-methoxy-3-[2-(2-thienyl)ethoxy]phenyl]ethylamine hydrochloride], which IC50 (sigma receptor [3]; [6]) is on record?
**A.** 9.35 nM

**Q.** And the IC50 (D2 receptor [1])?
**A.** > 10000 nM

**Q.** For `COc1ccc(CCN2CCN(c3ccccc3)CC2)cc1OCCc1ccccc1` [L, N-2-[4-Methoxy-3-(2-phenylethoxy)phenyl]ethyl-N'-phenylpiperazine oxalate], which IC50 (sigma receptor [3]; [6]) is on record?
**A.** 33 nM

**Q.** What about the IC50 (D2 receptor [1]; [9]) of the same compound?
**A.** 183 nM

**Q.** For `CCCN(CCC)CCc1ccc(OC)c(OCCCc2ccccc2)c1` [K, N,N-Di-n-propyl-2-[4-methoxy-3-(3-phenylpropoxy)phenyl]ethylamine oxalate], which IC50 (sigma receptor [3]; [6]) is on record?
**A.** 4.7 nM

**Q.** Which results are given for `C[C@@H]1CN(CCCn2c3ccccc3c3ccccc32)C[C@H](C)N1` [Rimcazole]?
**A.** ED25 [2, 10]: 37 mg/kg; affinity and specificity for sigma receptor (in words) (sigma receptor [4]; background art statement): restricted; IC50 (sigma receptor [4]; data of European Journal of Pharmacology, 155, p. 345 (1988)): 1640 nM; IC50 (D2 receptor [5]): 86000 nM

**Q.** Which results are given for `CCCN(CCC)CCc1cccc(F)c1OCCc1ccccc1` [H, N,N-Di-n-propyl-2-[3-fluoro-2-(2-phenylethoxy)phenyl]ethylamine oxalate]?
**A.** IC50 (sigma receptor [3]): 21.6 nM; IC50 (D2 receptor [1]): 3520 nM

**Q.** What does the source list for `CCCN(CCC)CCc1cc(Cl)ccc1OCCc1ccccc1.O=C(O)C(=O)O` [A, N,N-Di-n-propyl-2-[5-chloro-2-(2-phenylethoxy)phenyl]ethylamine oxalate]?
**A.** IC50 (sigma receptor [3]; [6]): 7.21 nM; IC50 (D2 receptor [1]; [9]): 112 nM; ED25 ([2]; po): 0.235 mg/kg

**Q.** For `CCCN(CCC)CCc1ccc(OC)cc1OCCc1ccccc1` [Y, N,N-Di-n-propyl-2-[4-methoxy-2-(2-phenylethoxy)phenyl]ethylamine oxalate], which IC50 (sigma receptor [3]; [6]) is on record?
**A.** 6.6 nM

**Q.** What about the IC50 (D2 receptor [1]) of the same compound?
**A.** 2350 nM

**Q.** With `CCCN(CCC)CCCc1cc(Br)ccc1OCCc1ccccc1` [F, N,N-Di-n-propyl-3-[5-bromo-2-(2-phenylethoxy)phenyl]propylamine oxalate] as the compound, how does the IC50 (sigma receptor [3]; [6]) read?
**A.** 10.9 nM

**Q.** What about the IC50 (D2 receptor [1]; [9]) of the same compound?
**A.** 438 nM

**Q.** Which results are given for `CCCN(CCC)CCc1cc(Br)ccc1OCCc1ccccc1` [E, N,N-Di-n-propyl-2-[5-bromo-2-(2-phenylethoxy)phenyl]ethylamine oxalate]?
**A.** IC50 (sigma receptor [3]; [6]): 11.1 nM; IC50 (D2 receptor [1]; [9]): 169 nM

**Q.** Which IC50 (sigma receptor [3]; [7]) does the source give for `CCCN(CCCO)CCc1ccc(OC)c(OCCc2ccccc2)c1` [S, N-n-propyl-N-3-hydroxypropyl-2-[4-methoxy-3-(2-phenylethoxy)phenyl]ethylamine oxalate] here?
**A.** 18.5 nM

**Q.** What about the IC50 (D2 receptor [1]; [8]) of the same compound?
**A.** > 10000 nM

**Q.** For `COc1ccc(CCN(C)C)cc1OCc1ccccc1.Cl` [AA, N,N-dimethyl-2-(4-methoxy-3-benzyloxyphenyl)ethylamine hydrochloride, reference compound], which IC50 (sigma receptor [3]) is on record?
**A.** 94.4 nM

**Q.** And the IC50 (D2 receptor [1])?
**A.** 40800 nM

**Q.** What about the ED25 ([2]; po) of the same compound?
**A.** 23.6 mg/kg
